In article PMC12717121, “ABA-independent PP2C-binding in PYLs traces to bacterial origins and persists in land plants” (Nature Communications, 2025):

Assays:
[1] = target: T1, PP2CA (AtPP2CA) (Arabidopsis thaliana, UniProt P49598); experiment: phosphatase assay, A405; assay type: biochemical; conditions: 50 mM pNPP, 0.5 μM PP2C, 33 mM Tris-OAc pH 7.9, 25 mM Mg(OAc)2
T1 construct: GST-PP2CA (pGEX-6P-1), E. coli BL21(DE3)
T1 sequence (P49598 1-399): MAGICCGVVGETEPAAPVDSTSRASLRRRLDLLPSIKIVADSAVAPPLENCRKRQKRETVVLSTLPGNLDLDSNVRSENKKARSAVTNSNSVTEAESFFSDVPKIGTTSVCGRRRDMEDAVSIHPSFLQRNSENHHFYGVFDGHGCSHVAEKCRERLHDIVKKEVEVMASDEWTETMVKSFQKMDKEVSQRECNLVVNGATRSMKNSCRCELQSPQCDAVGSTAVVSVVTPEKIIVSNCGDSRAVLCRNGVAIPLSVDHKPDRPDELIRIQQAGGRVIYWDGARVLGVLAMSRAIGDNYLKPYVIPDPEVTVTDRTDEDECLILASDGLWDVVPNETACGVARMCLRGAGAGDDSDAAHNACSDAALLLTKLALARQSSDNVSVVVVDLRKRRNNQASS

[2] = target: T2, ABI1 (AtABI1) (Arabidopsis thaliana, UniProt P49597); experiment: phosphatase assay, A405; assay type: biochemical; conditions: 50 mM pNPP, 0.5 μM PP2C, 33 mM Tris-OAc pH 7.9, 25 mM Mg(OAc)2
T2 construct: GST-ABI1 (pGEX-6P-1), E. coli BL21(DE3)
T2 sequence (P49597 1-434): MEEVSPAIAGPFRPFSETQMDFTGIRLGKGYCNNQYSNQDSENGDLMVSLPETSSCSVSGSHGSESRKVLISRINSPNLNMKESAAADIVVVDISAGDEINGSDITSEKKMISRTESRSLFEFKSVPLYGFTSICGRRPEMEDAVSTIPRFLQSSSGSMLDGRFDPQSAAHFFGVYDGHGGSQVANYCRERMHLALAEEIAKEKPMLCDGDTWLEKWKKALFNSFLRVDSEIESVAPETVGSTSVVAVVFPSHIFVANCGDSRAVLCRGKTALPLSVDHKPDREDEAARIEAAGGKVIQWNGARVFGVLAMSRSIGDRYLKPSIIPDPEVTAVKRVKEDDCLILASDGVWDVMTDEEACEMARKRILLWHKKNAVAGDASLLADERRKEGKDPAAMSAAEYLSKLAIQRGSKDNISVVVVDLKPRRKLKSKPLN

O=[N+]([O-])c1ccc(OP(=O)(O)O)cc1 [pNPP]
phosphatase assay, A405 [1]: Initial reaction velocities for GST-PP2Cs were measured using the synthetic phosphatase substrate pNPP | phosphatase assay, A405 [2]: Initial reaction velocities for GST-PP2Cs were measured using the synthetic phosphatase substrate pNPP
